# Laboratory results from US20210307376A1, “Compositions Comprising Nicotine and/or Nicotine Salts and Ultrasonic Aerosolisation of Compositions Comprising Nicotine and/or Nicotine Salts” (priority 2020, published 2021).
# Tests used:
# [1] = cited from earlier work; for P (octanol:water partitioning coefficient): [solute in octanol]:[solute in aqueous buffer]; for P (octanol:water partitioning coefficient) / % Aqueous: phosphate buffer; for P (octanol:water partitioning coefficient) / logP / % Aqueous: pH 7.4; for logP: octanol : aqueous phosphate buffer; for % Nonpolar: share of solute in octanol phase
# nicotinic receptors = details: inhaled; compared to other nicotine salts such as nicotine salicylate; cited from earlier work
# [2] = P 0.69 versus P 0.00145
# From the text: The partitioning coefficient can be used as a measure of lipid solubility.
Compound,P (octanol:water partitioning coefficient) [1],logP [1],% Aqueous [1] [%],% Nonpolar [1] [%],increase in proportion of nicotine binding sites (nicotinic receptors),increase of partitioning coefficient P in comparison to levulinic acid [2] [fold]
CN1CCCC1c1cccnc1 (centres unmarked) [Nicotine],2.82,0.45,26,74,–,–
Nicotine Levulinate,0.69,−0.16,59,41,20-50%,500
CC(=O)CCC(=O)O [Levulinic Acid],0.00145,−2.84,99.85,0.15,–,–
